The test system of experiment [1] is Staphylococcus aureus. In words: Antimicrobial activity against Staphylococcus aureus MTCC 96 after 24 hr by two-fold serial dilution method. Conditions: MTCC 96, 24 h. The experiment is classed as functional.
The subject of a further experiment is Pseudomonas aeruginosa. In words: Antimicrobial activity against Pseudomonas aeruginosa MTCC 741 at 2 mg/ml after 24 hr by agar well diffusion method. The experiment is classed as functional, organism-based.
The test system of experiment [2] is Candida albicans. Kind of experiment: Antimicrobial activity against Candida albicans MTCC 227 at 2 mg/ml by two-fold serial dilution method. The format is functional.
In experiment [3] the test system is Staphylococcus aureus. Kind of experiment: Antimicrobial activity against Staphylococcus aureus MTCC 96 at 2 mg/ml after 24 hr by agar well diffusion method. The experiment is classed as functional. To be noted: MTCC 96, 24 h, read-out: DIZ.
Experiment [4] concerns Saccharomyces cerevisiae. In words: Antimicrobial activity against Saccharomyces cerevisiae MTCC 170 after 24 hr by two-fold serial dilution method. The experiment is classed as functional.
Experiment [5] has as its system Bacillus subtilis. Kind of experiment: microbe, parasite or virus in culture. The format is functional. To be noted: MTCC 121, 24 h.
Description: Antimicrobial activity against Bacillus subtilis MTCC 121 at 2 mg/ml after 24 hr by two-fold serial dilution method
Another experiment concerns Escherichia coli. In words: Antimicrobial activity against Escherichia coli MTCC 1652 at 2 mg/ml after 24 hr by agar well diffusion method. The format is functional, organism-based. On the technique in general: In agar diffusion tests the substance spreads into inoculated agar from a disc or well.
Experiment [6] deals with Saccharomyces cerevisiae. Kind of experiment: Antimicrobial activity against Saccharomyces cerevisiae MTCC 170 at 2 mg/ml after 24 hr by agar well diffusion method. The format is functional. Conditions: for zone of inhibition at 2000 µg/mL: MTCC 170, 24 h, read-out: DIZ.
Experiment [7] relates to Bacillus subtilis. Kind of experiment: microbe, parasite or virus in culture. The format is functional. To be noted: MTCC 121, 24 h, read-out: DIZ.
Description: Antimicrobial activity against Bacillus subtilis MTCC 121 at 2 mg/ml after 24 hr by agar well diffusion method
In experiment [8] the test system is Candida albicans. Kind of experiment: Antimicrobial activity against Candida albicans MTCC 227 at 2 mg/ml by agar well diffusion method. The format is functional. To be noted: for zone of inhibition at 2000 µg/mL: read-out: DIZ.

Each structure is given as a SMILES string. Values after ≈ are worked out from the molar mass of the structure shown. Active and inactive are the calls of the source. The rule behind the calls is not given here.

`CCCOC1Sc2nnc(CC)n2N=C1c1ccccc1` (centres undefined): the MIC against Staphylococcus aureus [1] and against Bacillus subtilis [5] was 256 µg/mL (≈ 847 µM) each time. The result in the experiment with Pseudomonas aeruginosa and in the experiment with Escherichia coli was inactive. Besides, the MIC result with Candida albicans [2] and in the experiment with Saccharomyces cerevisiae [4] was “inactive” in each case. The values for the zone of inhibition at 2000 µg/mL in the experiment on Staphylococcus aureus [3] and in the experiment with Bacillus subtilis [7] were 14 mm and 13.6 mm, respectively. For the same compound, the “diameter of the inhibition zone (DIZ)” value in the experiment on Saccharomyces cerevisiae [6] and with Candida albicans [8] was “inactive” each time.

Take `CCCOC1Sc2nnc(-c3ccccc3)n2N=C1c1ccccc1` (centres undefined): the MIC with Staphylococcus aureus [1] worked out at 64 µg/mL (≈ 183 µM); against Saccharomyces cerevisiae [4] (MTCC 170, 24 h) it was 64 µg/mL (≈ 183 µM); in the experiment with Bacillus subtilis [5], 128 µg/mL (≈ 365 µM). Moreover, the result in the experiment on Pseudomonas aeruginosa and in the experiment on Escherichia coli was inactive. Further, the MIC result in the experiment with Candida albicans [2] is “inactive”. In addition, the zone of inhibition at 2000 µg/mL amounted to 20.6 mm in the experiment on Staphylococcus aureus [3], 17.3 mm in the experiment with Saccharomyces cerevisiae [6] and 17.3 mm with Bacillus subtilis [7]. In the experiment on Candida albicans [8], the “diameter of the inhibition zone (DIZ)” value is “inactive”.

For `CCc1nnc2n1N=C(c1ccc(Cl)cc1)C(OC)S2` (centres undefined), the MIC against Staphylococcus aureus [1] stood at 64 µg/mL (≈ 207 µM); against Candida albicans [2], 128 µg/mL (≈ 415 µM); against Saccharomyces cerevisiae [4] (MTCC 170, 24 h), 128 µg/mL (≈ 415 µM); with Bacillus subtilis [5] it was 128 µg/mL (≈ 415 µM). The result in the experiment with Pseudomonas aeruginosa and with Escherichia coli was inactive. In addition, the zone of inhibition at 2000 µg/mL with Staphylococcus aureus [3] is 19.3 mm; with Saccharomyces cerevisiae [6], 12.6 mm; with Bacillus subtilis [7] it was 16.3 mm; with Candida albicans [8], 13 mm.

Consider `CCCc1nnc2n1N=C(c1ccccc1)C(OCC)S2` (centres undefined), for which the MIC was determined as 256 µg/mL (≈ 847 µM) against Staphylococcus aureus [1] and 128 µg/mL (≈ 423 µM) with Bacillus subtilis [5]. For the same compound, the result in the experiment on Pseudomonas aeruginosa and in the experiment with Escherichia coli was inactive. Besides, the MIC result in the experiment on Candida albicans [2] and with Saccharomyces cerevisiae [4] was “inactive” throughout. The zone of inhibition at 2000 µg/mL in the experiment with Staphylococcus aureus [3] came to 13.6 mm; in the experiment on Bacillus subtilis [7], 17.6 mm. For the same compound, the “diameter of the inhibition zone (DIZ)” value in the experiment with Saccharomyces cerevisiae [6] and in the experiment on Candida albicans [8] was “inactive” in each case.

As to `CCc1nnc2n1N=C(c1ccccc1)C(OC)S2` (centres undefined), the MIC in the experiment with Staphylococcus aureus [1] amounted to 32 µg/mL (≈ 117 µM); with Candida albicans [2], 64 µg/mL (≈ 233 µM); in the experiment on Saccharomyces cerevisiae [4] (MTCC 170, 24 h) it was 64 µg/mL (≈ 233 µM); against Bacillus subtilis [5], 32 µg/mL (≈ 117 µM). The outcome in the experiment with Pseudomonas aeruginosa and with Escherichia coli was inactive. Moreover, the zone of inhibition at 2000 µg/mL worked out at 22.3 mm in the experiment on Staphylococcus aureus [3], 15.3 mm in the experiment on Saccharomyces cerevisiae [6], 21.6 mm in the experiment with Bacillus subtilis [7] and 16.3 mm with Candida albicans [8].

As for `CCCc1nnc2n1N=C(c1ccccc1)C(OC)S2` (centres undefined), the MIC in the experiment on Staphylococcus aureus [1] amounted to 128 µg/mL (≈ 444 µM); in the experiment on Saccharomyces cerevisiae [4] (MTCC 170, 24 h) it was 256 µg/mL (≈ 888 µM); in the experiment on Bacillus subtilis [5] it was 64 µg/mL (≈ 222 µM). The result with Pseudomonas aeruginosa and with Escherichia coli was inactive. The MIC result in the experiment on Candida albicans [2] is “inactive”. Also, the zone of inhibition at 2000 µg/mL with Staphylococcus aureus [3] amounted to 16 mm; in the experiment on Saccharomyces cerevisiae [6] it was 12.6 mm; with Bacillus subtilis [7], 18.3 mm. In the experiment on Candida albicans [8], the “diameter of the inhibition zone (DIZ)” value was “inactive”.

In the case of `O=C(O)c1cn(C2CC2)c2cc(N3CCNCC3)c(F)cc2c1=O` [CIPROFLOXACIN], the MIC with Staphylococcus aureus [1] and in the experiment with Bacillus subtilis [5] was 5 µg/mL (≈ 15.1 µM) throughout. Also, the results for the zone of inhibition at 2000 µg/mL in the experiment with Staphylococcus aureus [3] and in the experiment on Bacillus subtilis [7] were 26.6 mm and 24 mm, respectively.

Take `CC(C)OC1Sc2nnc(-c3ccccc3)n2N=C1c1ccccc1` (centres undefined): the MIC against Staphylococcus aureus [1] turned out to be 128 µg/mL (≈ 365 µM); in the experiment with Saccharomyces cerevisiae [4] (MTCC 170, 24 h), 128 µg/mL (≈ 365 µM); against Bacillus subtilis [5], 256 µg/mL (≈ 730 µM). Also, the outcome in the experiment on Pseudomonas aeruginosa and in the experiment on Escherichia coli was inactive. Also, the MIC result with Candida albicans [2] was “inactive”. Moreover, the zone of inhibition at 2000 µg/mL in the experiment on Staphylococcus aureus [3] came to 18.3 mm; in the experiment on Saccharomyces cerevisiae [6] it was 13.3 mm; in the experiment on Bacillus subtilis [7], 15.6 mm. Also, the “diameter of the inhibition zone (DIZ)” value in the experiment with Candida albicans [8] was “inactive”.

For `COC1Sc2nnc(-c3ccccc3)n2N=C1c1ccccc1` (centres undefined), the MIC in the experiment on Staphylococcus aureus [1] was found to be 16 µg/mL (≈ 49.6 µM); in the experiment on Saccharomyces cerevisiae [4] (MTCC 170, 24 h), 32 µg/mL (≈ 99.3 µM); against Bacillus subtilis [5] it was 64 µg/mL (≈ 199 µM). In addition, the result in the experiment with Pseudomonas aeruginosa and in the experiment on Escherichia coli was inactive. Moreover, in the experiment on Candida albicans [2], the MIC result was “inactive”. For the same compound, the zone of inhibition at 2000 µg/mL with Staphylococcus aureus [3] came out at 25.6 mm; in the experiment on Saccharomyces cerevisiae [6], 18.6 mm; in the experiment with Bacillus subtilis [7], 18 mm. Also, in the experiment with Candida albicans [8], the “diameter of the inhibition zone (DIZ)” value is “inactive”.

(Values after ChEMBL document CHEMBL3046925, “,-Dibromoacetophenones mediated synthesis of some new 7H-7-alkoxy-3-alkyl/phenyl-6-aryl-s-triazolo[3,4-b][1,3,4]thiadiazines and their antimicrobial evaluation” (2012).)
